Values quoted from earlier work in patent publication US20240011040A1, “SALICYLIC ACID-INDUCIBLE GENE EXPRESSION COMPOSITIONS AND SYSTEMS FOR CELLS” (UNIVERSITY OF HOUSTON SYSTEM, priority 2020, published 2024).

Experiments:
[1] = biological target: T1, Arabidopsis thaliana (At) NPR4 (Arabidopsis thaliana, UniProt Q5ICL9); details: AtNPR4, high-affinity sensor of SA
T1 sequence (Q5ICL9 1-574): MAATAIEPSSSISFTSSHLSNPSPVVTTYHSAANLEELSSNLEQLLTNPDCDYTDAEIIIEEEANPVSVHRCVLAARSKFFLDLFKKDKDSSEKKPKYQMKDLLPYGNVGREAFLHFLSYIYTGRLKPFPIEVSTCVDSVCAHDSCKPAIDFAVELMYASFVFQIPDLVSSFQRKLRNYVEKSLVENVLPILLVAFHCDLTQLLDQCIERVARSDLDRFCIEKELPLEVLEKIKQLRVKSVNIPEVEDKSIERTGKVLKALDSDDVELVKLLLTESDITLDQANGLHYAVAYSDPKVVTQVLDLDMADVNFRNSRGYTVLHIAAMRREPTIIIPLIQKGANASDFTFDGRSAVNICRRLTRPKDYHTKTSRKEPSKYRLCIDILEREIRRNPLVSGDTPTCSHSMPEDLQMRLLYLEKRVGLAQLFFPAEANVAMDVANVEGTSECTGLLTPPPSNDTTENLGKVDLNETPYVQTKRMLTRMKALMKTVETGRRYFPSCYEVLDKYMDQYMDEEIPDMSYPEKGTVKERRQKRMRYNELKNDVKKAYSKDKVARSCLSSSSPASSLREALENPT

Row | Kd [1] | Molecule | half-life in blood
1 | 24 nM | O=C(O)c1ccccc1O [SA, salicylic acid] | –
2 | – | EPO: glycoprotein cytokine secreted mainly by the kidney; stimulates red blood cell production | around 5 h
